The record followed here is US6492381B1, “Tricyclic carbamate compounds useful for inhibition of G-protein function and for treatment of proliferative diseases” (Schering Corp., priority 1993, dated 2002).

pIC50: −log10 of the molar value. Like-named read-outs stand apart in the source and are kept apart here.

Assay [1] has as its target T1, farnesyl protein transferase (FPT) (Rattus norvegicus, UniProt Q02293+Q04631).
T1 construct: were partially purified from rat brain by ammonium sulfate fractionation followed by Q-Sepharose; from tissue; host or cells: rat brain
Kind of assay: In vitro enzyme assay: inhibition of farnesyl protein transferase. The class given is biochemical. As for the experimental part: 1. In vitro enzyme assays: Inhibition of farnesyl protein transferase and geranylgeranyl protein transferase.
Human farnesyl protein transferase was also expressed in E. coli, using cDNA clones encoding both the α and β subunits. […] Two forms of val^12-Ha-Ras protein were prepared as substrates for these enzymes, differing in their carboxy terminal sequence. One form terminated in cysteine-valine-leucine-serine (Ras-CVLS) the other in cystein-valine-leucine-leucine (Ras-CVLL). Ras-CVLS is a substrate for the farnesyl protein transferase while Ras-CVLL is a substrate for geranylgeranyl protein transferase I. The cDNAs encoding these proteins were constructed so that the proteins contain an amino-terminal extension of 6 histidine residues. Both proteins were expressed in Escherichia coli and purified using metal chelate affinity chromatography. The radiolabelled isoprenyl pyrophosphate substrates, [^3H]farnesyl pyrophosphate and [^3H]geranylgeranyl pyrophosphate, were purchased from DuPont/New England Nuclear.
The reaction was allowed to proceed for 30 minutes at room temperature and then stopped with 0.5 ml of 4% sodium dodecyl sulfate (SDS) followed by 0.5 ml of cold 30% trichloracetic acid (TCA). Samples were allowed to sit on ice for 45 minutes and precipitated Ras protein was then collected on GF/C filter paper mats using a Brandel cell harvester. […] Percent inhibition was calculated relative to the DMSO vehicle control.

The test system of assay [2] is T24-BAG4 human bladder carcinoma cells expressing an activated H-ras gene. Kind of assay: Cell Mat assay: inhibition of tumor cell growth. The note with it: for IC50: tIC50. The format is cell-based. As for the experimental part:
(§1) Normal human HEPM fibroblasts were planted in 3.5 cm dishes at a density of 5×10^4 cells/dish in 2 ml growth medium, and incubated for 3-5 d to achieve confluence. Medium was aspirated from each dish and the indicator tumor cells, T24-BAG4 human bladder carcinoma cells expressing an activated H-ras gene, were planted on top of the fibroblast monolayer at a density of 2×10^3cells/dish in 2 ml growth medium, and allowed to attach overnight. Compound-induced colony inhibition was assayed by addition of serial dilutions of compound directly to the growth medium 24 h after tumor cell planting, and incubating cells for an additional 14 d to allow colony formation. Assays were terminated by rinsing monolayers twice with phosphate-buffered saline (PBS), fixing the monolayers with a 1% glutaraldehyde solution in PBS, then visualizing tumor cells by staining with X-Gal (Price, J., et al., Lineage analysis in the vertebrate nervous system by retrovirus-mediated gene transfer, Proc. Natl. Acad. Sci.84, 156-160(1987)). […] Both IC50 values were obtained by determining the density of tumor cells and mat cells by visual inspection and enumeration of cells per colony and the number of colonies under the microscope. The therapeutic index of the compound was quantitatively expressed as the ratio of mIC50/tIC50, with values greater than one indicative of tumor target specificity.

The subject of assay [3] is Normal human HEPM fibroblasts. Put plainly: Cell Mat assay: inhibition of normal cell growth. The class given is cell-based. The note with it: mIC50, normal cell monolayer. How it is done:
as §1

[4] abbreviates: Ras-CVLS farnesylation, partially purified rat brain FPT, read-out: FPT IC50.

As for `CCOC(=O)N1CCC(=C2c3ccc(Cl)cc3CCc3ccc[n+]([O-])c32)CC1` [Compound 515.00, Ethyl 4-(8-chloro-5,6-dihydro-11H-benzo[5,6]cyclohepta[1,2-B]pyridin-11-ylidene)-1-piperidinecarboxylate N-oxide], the pIC50 in assay [1] (setting [4]) is 4.42. In addition, the “selective antiproliferative activity against Ras-transformed cells versus normal cells” value (shortened to “selective antiproliferative activity”) in assay [2] is “little”. Also, the IC50 in assay [2] was 75 µM; in assay [3], more than 100 µM. As for `CCOC(=O)N1CCC(F)(C2c3ccc(Cl)cc3CCc3cccnc32)CC1` (stereo not drawn) [Compound 520.00], the pIC50 in assay [1] (setting [4]) was 4.98. Same read-out and setting: under `CCOC(=O)N1CCC(=C2c3ccc(Br)cc3CCc3cccnc32)CC1` [Compound 540.00] stands 5.15; under `CCOC(=O)N1CCC(=C2c3ccc(Cl)cc3CCc3cc(C)cnc32)CC1` [Compound 545.00], 5.15. Consider `CCOC(=O)N1CCC(=C2c3cc(Cl)c(Cl)cc3CCc3cccnc32)CC1` [Compound 555.00], for which, in assay [1] (setting [4]), the pIC50 is 4.42. The same measure, in the same setting: the figure for `COC(=O)N1CCC(=C2c3ccc(Cl)cc3CCc3cccnc32)CC1` [Compound 560.00] is 4.75. On the same count and under the same terms, the figure for `O=C(OCc1ccccc1)N1CCC(=C2c3ccc(Cl)cc3CCc3cccnc32)CC1` [Compound 570.00] is 5.10; for `CCCCCCOC(=O)N1CCC(=C2c3ccc(Cl)cc3CCc3cccnc32)CC1` [Compound 590.00] it is 4.10. The same measure, in the same setting: under `CCOC(=O)N1CCC(=C2c3ccc(Cl)cc3CCc3c(Cl)ccnc32)CC1` [Compound 596.00] stands 4.98; under `CCOC(=O)N1CCN([C@@H]2c3ccc(Cl)cc3CCc3cccnc32)CC1` [Compound 602.00, (+) Ethyl 4-(8-chloro-6,11-dihydro-11H-benzo[5,6]-cyclohepta[1,2-b]pyridin-11(R)-yl)-1-piperazine Carboxylate], 4.47. With `CCOC(=O)N1CCN([C@H]2c3ccc(Cl)cc3CCc3cccnc32)CC1` [Compound 604.00, (−) Ethyl 4-(8-chloro-6,11-dihydro-11H-benzo[5,6]-cyclohepta[1,2-b]pyridin-11(S)-yl)-1-piperazinecarboxylate], the negative logarithm of the IC50 (pIC50) in assay [1] (setting [4]) was 4.98. As to `O=C(OCc1ccccc1)N1CCN(C2c3ccc(Cl)cc3CCc3cccnc32)CC1` (stereo not drawn) [Compound 614.00, Phenylmethyl 4-(8-chloro-6,11-dihydro-5H-benzo[5,6]-cyclohepta[1,2-b]pyridin-11-yl)-1-piperazinecarboxylate], in assay [1] (setting [4]), the pIC50 is less than 4.70. For the same compound, the “selective antiproliferative activity” value in assay [2] is reported as “little”. Moreover, the IC50 is 50 µM in assay [2] (Homo sapiens) and more than 50 µM in assay [3] (Homo sapiens, Fibroblast). In the case of `CCOC(=O)N1CCC(C2c3cc(CC)c(Cl)cc3C=Cc3cccnc32)CC1` (stereo not drawn) [Compound 622.00, 8-chloro-11-(1-ethoxycarbonyl-4-piperidinyl)-9-ethyl-11H-benzo[5,6]cyclohepta[1,2-b]pyridine], in assay [1] (setting [4]), the pIC50 is 4.98. For `CCOC(=O)N1CCC(C2c3ccc(Cl)cc3C=Cc3c(Cl)ccnc32)CC1` (stereo not drawn) [Compound 636.00], the pIC50 in assay [1] (setting [4]) was 5.13.

As to `CCOC(=O)N1CCC(=C2c3ccc(Cl)cc3CCc3cc(Br)cnc32)CC1` [Compound 642.00], the pIC50 in assay [1] (setting [4]) is 5.66. Moreover, the “selective antiproliferative activity” value in assay [2] is “little”. In addition, the IC50 is 50 µM in assay [2] (Homo sapiens) and more than 50 µM in assay [3] (Homo sapiens, Fibroblast). In the case of `O=C(Oc1cccnc1)N1CCC(=C2c3ccc(Cl)cc3CCc3c(Cl)ccnc32)CC1` [Compound 644.00, 3-pyridyl 4-(4,8-dichloro-5,6-dihydro-11H-benzo[5,6]cyclohepta[1,2-b]pyridin-11-ylidene)-1-piperidine Carboxylate], the pIC50 in assay [1] (setting [4]) was 5.99. Regarding `CCOC(=O)N1CCC(=C2c3ccc(Cl)cc3CCc3c(O)ccnc32)CC1` [Compound 646.00, Ethyl 4-[4-hydroxy-8-chloro-5,6-dihydro-11H-benzo[5,6]cyclohepta[1,2-b]pyridin-11-ylidene]-1-piperidine Carboxylate], in assay [1] (@ 15 μM), the inhibition at 15 µM came to 30%. With `O=C(Oc1cccnc1)N1CCC(=C2c3ccc(Cl)cc3CCc3c(O)ccnc32)CC1` [Compound 648.00, 3-pyridyl 4-[4-hydroxy-8-chloro-5,6-dihydro-11H-benzo[5,6]cyclohepta[1,2-b]pyridin-11-ylidene]-1-piperidine Carboxylate], the pIC50 in assay [1] (setting [4]) is 5.17. For `O=C(Oc1cccnc1)N1CCC(=C2c3ccc(Cl)cc3CCc3c(On4nnc5ccccc54)ccnc32)CC1` [Compound 656.00, 3-pyridyl 4-[4-[(1H-benzotriazol-1-yl)oxy]-8-chloro-5,6-dihydro-11H-benzo[5,6]cyclohepta[1,2-b]pyridin-11-ylidene[-1-piperidine Carboxylate], the pIC50 in assay [1] (setting [4]) is 6.15. For the compound `CCOC(=O)N1CCC(=C2c3ccc(Cl)cc3CCc3cc(OC)cnc32)CC1` [Compound 658.00, 8-chloro-3-methoxy-11-(1-ethoxycarbonyl-4-piperidylidene)-6,11-dihydro-5H-benzo[5,6]-cyclohepta[1,2-b]pyridine], the negative-log IC50 (pIC50) in assay [1] (setting [4]) was 4.94. Turning to `CCOC(=O)N1CCC(=C2c3ccc(Cl)cc3CCc3c2ncc(Br)c3O)CC1` [Compound 660.00, Ethyl 4-[3-bromo-4-hydroxy-8-chloro-5,6-dihydro-11H-benzo[5,6]cyclohepta[1,2-b]pyridin-11-ylidene]-1-piperidine Carboxylate], testing at 13 µM in assay [1] (@ 13 μM) gave an inhibition of 22%. Turning to `O=C(Oc1cccnc1)N1CCC(=C2c3ccc(Cl)cc3CCc3c2ncc(Br)c3O)CC1` [Compound 662.00, 3-pyridyl 4-[3-bromo-4-hydroxy-8-chloro-5,6-dihydro-11H-benzo[5,6]cyclohepta[1,2-b]pyridin-11-ylidene]-1-piperidine Carboxylate], in assay [1] (setting [4]), the pIC50 was 5.42. For `O=C(Oc1cccnc1)N1CCC(=C2c3ccc(Cl)cc3C=Cc3cccnc32)CC1` [Compound 664.00], in assay [1] (setting [4]), the pIC50 was 5.84. Consider `CCOC(=O)N1CCC(=C2c3ccc(Cl)cc3C=Cc3cccnc32)CC1` [Compound 666.00], for which, in assay [1] (setting [4]), the pIC50 is 4.97.

Take `O=C(Oc1ccc[n+]([O-])c1)N1CCN(C2c3ccc(Cl)cc3CCc3cccnc32)CC1` (stereo not drawn) [Compound 800.00]: in assay [1] (setting [4]), the negative-log IC50 (pIC50) was 5.43. `O=C(Oc1ccc[n+]([O-])c1)N1CCN(C2c3ccc(Cl)cc3CCc3cc(Br)cnc32)CC1` (stereo not drawn) [Compound 801.00] gave a negative logarithm of the IC50 (pIC50) in assay [1] of 6.55. Compound `CN1CCC(OC(=O)N2CCN(C3c4ccc(Cl)cc4CCc4cccnc43)CC2)CC1` (stereo not drawn) [Compound 802.00] showed an FPT inhibition, second line of the FPT IC50 (μM) column in assay [1] ((1.3), the values are: FPT inhibition at 1.3 µM) of 35%. In assay [1] (setting [4]), the pIC50 was less than 5.89. Turning to `CN1CCCC(OC(=O)N2CCN(C3c4ccc(Cl)cc4CCc4cccnc43)CC2)C1` (stereo not drawn) [Compound 804.00], the pIC50 in assay [1] (setting [4]) was 5.68. In the case of `CN1CCCC(OC(=O)N2CCN(C3c4ccc(Cl)cc4CCc4cc(Br)cnc43)CC2)C1` (stereo not drawn) [Compound 805.00], the pIC50 in assay [1] (setting [4]) was 6.52. For `O=C(Oc1ccccc1)N1CCN(C2c3ccc(Cl)cc3C=Cc3cccnc32)CC1` (stereo not drawn) [Example 32], the pIC50 in assay [1] is 6.06. Moreover, the IC50 is 25 µM in assay [2] (Homo sapiens) and 25 µM in assay [3] (Homo sapiens, Fibroblast).
